According to ChEMBL document CHEMBL1149853, “Cannabinoid ester constituents from high-potency Cannabis sativa” (J Nat Prod, 2008):
In brackets after ≈: the same amount, converted by molar mass. Activity calls are given as the source filed them. The rule behind the calls is not given here.

Tests used:
[1] = molecular target: Cannabinoid receptor 1 (Homo sapiens) (UniProt P21554); assay: Binding affinity to CB1 receptor
Candida albicans = assay: Antimicrobial activity against Candida albicans ATCC 90028; assay type: functional, organism-based
Plasmodium falciparum [2] = assay: Antimicrobial activity against Plasmodium falciparum D6; assay type: functional, organism-based
Plasmodium falciparum [3] = assay: Antimicrobial activity against Plasmodium falciparum W2; assay type: functional, organism-based

Chain of Cannabinoid receptor 1 (Homo sapiens) (P21554 whole entry): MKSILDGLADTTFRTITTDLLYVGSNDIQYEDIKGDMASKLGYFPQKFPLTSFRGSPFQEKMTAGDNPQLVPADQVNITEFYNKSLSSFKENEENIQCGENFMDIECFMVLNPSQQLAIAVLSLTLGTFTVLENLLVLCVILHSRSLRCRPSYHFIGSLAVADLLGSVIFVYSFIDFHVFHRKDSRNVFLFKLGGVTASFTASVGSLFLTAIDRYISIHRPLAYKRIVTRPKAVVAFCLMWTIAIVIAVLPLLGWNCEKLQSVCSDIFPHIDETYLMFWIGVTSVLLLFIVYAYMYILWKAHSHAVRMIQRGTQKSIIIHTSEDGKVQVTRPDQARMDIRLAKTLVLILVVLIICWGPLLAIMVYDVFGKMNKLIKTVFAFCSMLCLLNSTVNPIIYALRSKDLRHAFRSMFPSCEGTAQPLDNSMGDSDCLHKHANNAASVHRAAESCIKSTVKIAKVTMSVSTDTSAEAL

Q: With `CCCCCc1cc(O)c(C/C=C(\C)CCC=C(C)C)c(O)c1C(=O)OC(C)(C)[C@@H]1CC[C@@]2(C)CCCC(C)=C2C1` as the compound, how does the Activity [1] read?
A: Its Activity is “inactive”.

Q: Which Activity [1] does the source give for `CCCCCc1cc2c(c(O)c1C(=O)O[C@H]1C(C)(C)[C@@H]3CC[C@@]1(C)C3)[C@@H]1C=C(C)CC[C@H]1C(C)(C)O2` here?
A: Its Activity is “inactive”.

Q: Which Activity [1] does the source give for `CCCCCc1cc2c(c(O)c1C(=O)O[C@H]1C[C@H]3CC[C@@]1(C)C3(C)C)[C@@H]1C=C(C)CC[C@H]1C(C)(C)O2` here?
A: The Activity was “inactive”.

Q: With `CCCCCc1cc2c(c(O)c1C(=O)O[C@@H]1C(C)(C)[C@@H]3CC[C@@]1(C)C3)[C@@H]1C=C(C)CC[C@H]1C(C)(C)O2` as the compound, how does the Activity [1] read?
A: Its Activity is “inactive”.

Q: How did the Activity [1] turn out when `CCCCCc1cc2c(c(O)c1C(=O)O)[C@@H]1C=C(C)CC[C@H]1C(C)(C)O2` was run?
A: The Activity was “inactive”.

Q: `CCCCCc1cc(O)c(C/C=C(\C)CCC=C(C)C)c(O)c1C(=O)O` was tested. Which Activity [1] did it give?
A: The Activity was “inactive”.

Q: How did the Activity [1] turn out when `CCCCCc1cc2c(c(O)c1C(=O)OC(C)(C)C1CC=C(C)CC1)[C@@H]1C=C(C)CC[C@H]1C(C)(C)O2` (some centres not stated) was run?
A: The Activity was “inactive”.

Q: For `CCCCCc1cc2c(c(O)c1C(=O)O)-c1cc(C)ccc1C(C)(C)O2`, which Activity [1] is on record?
A: The Activity was “inactive”.

Q: For `CCCCCc1cc2c(c(O)c1C(=O)O[C@H]1C[C@H]3CC[C@]1(C)C3(C)C)[C@@H]1C=C(C)CC[C@H]1C(C)(C)O2`, which Activity [1] is on record?
A: Its Activity is “inactive”.

Q: For `CCCCCc1cc2c(c(O)c1C(=O)OC1(C(C)C)CC=C(C)CC1)[C@@H]1C=C(C)CC[C@H]1C(C)(C)O2` (some centres not stated), which Activity [1] is on record?
A: The Activity was “inactive”.

Q: How did the Activity [1] turn out when `CCCCCc1cc(O)c(C/C=C(\C)CCC=C(C)C)c(O)c1C(=O)O[C@@]1(C)CC[C@@H](C(C)C)[C@@H]2C=C(C)CC[C@H]21` was run?
A: Its Activity is “inactive”.

Q: Which Activity [1] does the source give for `CCCCCc1cc2c(c(O)c1C(=O)O[C@@]1(C)CC[C@@H](C(C)C)[C@@H]3C=C(C)CC[C@H]31)[C@@H]1C=C(C)CC[C@H]1C(C)(C)O2` here?
A: Its Activity is “inactive”.

Q: With `CCCCCc1cc2c(c(O)c1C(=O)OC(C)(C)[C@@H]1CC[C@@]3(C)CCCC(C)=C3C1)[C@@H]1C=C(C)CC[C@H]1C(C)(C)O2` as the compound, how does the Activity [1] read?
A: The Activity was “inactive”.

Q: With `CCCCCc1cc2c(c(O)c1C(=O)OC1(C(C)C)CC=C(C)CC1)-c1cc(C)ccc1C(C)(C)O2` (configuration not stated) as the compound, how does the IC50 (Candida albicans) read?
A: Its IC50 is 8.5 µg/mL (≈ 17.3 µM).

Q: And the IC50 (Plasmodium falciparum [2])?
A: The IC50 was 2.7 µg/mL (≈ 5.5 µM).

Q: And the IC50 (Plasmodium falciparum [3])?
A: The IC50 was 2.4 µg/mL (≈ 4.89 µM).

Q: What about the Activity [1] of the same compound?
A: Its Activity is “inactive”.
